# From patent US20240018163A1, “NEW THIAZOLOPYRIMIDINONE DERIVATIVES” (Hoffmann-La Roche Inc., priority 2021, published 2024)
# Test system: mutant HTT protein (mHTT)
# Assay: Homogeneous Time Resolved Fluorescence (HTRF) assay for HTT lowering
# Type: cell-based
# Settings: reduction of mHTT in Huntington patient human cells (GENEAe020-A cell line), 48 hours incubation, mean from three replicates
# Procedure: Homogeneous Time Resolved Fluorescence for HTT lowering
# The HTRF assay was adapted from Weiss et al. (Analytical Biochemistry Volume 395, Issue 1, 1 Dec. 2009, Pages 8-15 and Analytical Biochemistry Volume 410, 2011, Pages 304-306) to cells from GENEAe020-A cell line (https://hpscreg.eu/cell-line/GENEAe020-A).
# Compounds were tested for the effect of mutant HTT levels in Huntington patient human cells (GENEAe020-A cell line) using Homogeneous Time Resolved Fluorescence (HTRF) directed towards mutant HTT protein (mHTT). The GENEAe020-A cell line was derived by Genea Biocells from human blastocysts of HD donors. After assessing viability, cells were plated into 384 well collagen coated plates in growth media. Once cells adhered, media was removed and test compounds dissolved in DMSO were diluted with buffer solution and added to the adherent cells. Controls included experiments with no cells, DMSO with no compound, and Hsp90 inhibitor control. Cells were incubated with compounds and controls for 48 hours. Then, the cells were lysed and transferred to an assay plate containing HTRF labeled monoclonal antibodies developed by Paul Patterson (Ko et al., Brain Research Bulletin, Volume 56, Numbers 3 and 4, 2001, Pages 319-329) which recognize specific areas of the HTT protein. The terbium labeled “donor” antibody (2B7) binds to the N-terminus of the HTT protein and the Alexa488 labeled “acceptor” antibody (MW1) is specific for the polyglutamine region of the protein. Binding of the acceptor labeled antibody is more efficient for the extended polyglutamine repeats of mutant HTT protein which translates into a signal boost which enables the specific measurement of mutant HTT protein level. The HTRF donor and acceptor detection reagents were incubated with the cell lysate and the ratio between the signals of the two fluorophores is indicative of the relative quantities of mHTT.
row,Structure (SMILES),EC50 [µM]
1,"COc1cc(-c2cc(=O)n3cc([C@]4(F)CCNC[C@H]4F)sc3n2)nn2cc(C)nc12 (racemic) [Example 51, 7-(8-methoxy-2-methyl-imidazo[1,2-b]pyridazin-6-yl)-2-[rac-(3R,4S)-3,4-difluoro-4-piperidyl]thiazolo[3,2-a]pyrimidin-5-one]",0.102
2,"COc1cc(-c2cc(=O)n3cc([C@]4(F)CCNC[C@@H]4F)sc3n2)nn2cc(C)nc12 (racemic) [Example 52, 7-(8-methoxy-2-methyl-imidazo[1,2-b]pyridazin-6-yl)-2-[rac-(3S,4S)-3,4-difluoro-4-piperidyl]thiazolo[3,2-a]pyrimidin-5-one]",0.237
3,"Cc1cn2nc(-c3cc(=O)n4cc([C@]5(F)CCNC[C@H]5F)sc4n3)cc(C)c2n1 (racemic) [Example 53, 7-(2,8-dimethylimidazo[1,2-b]pyridazin-6-yl)-2-[rac-(3R,4S)-3,4-difluoro-4-piperidyl]thiazolo[3,2-a]pyrimidin-5-one]",0.132
4,"Cc1cn2nc(-c3cc(=O)n4cc([C@]5(F)CCNC[C@@H]5F)sc4n3)cc(C)c2n1 (racemic) [Example 54, 7-(2,8-dimethylimidazo[1,2-b]pyridazin-6-yl)-2-[rac-(3S,4S)-3,4-difluoro-4-piperidyl]thiazolo[3,2-a]pyrimidin-5-one]",0.556
5,"Cc1cn2nc(-c3cc(=O)n4cc(N5CCNCC5)sc4n3)cc(C)c2n1 [Example 1, 7-(2,8-dimethylimidazo[1,2-b]pyridazin-6-yl)-2-piperazin-1-yl-thiazolo[3,2-a]pyrimidin-5-one]",0.046
6,"Cc1cn2nc(-c3cc(=O)n4cc(C5=CCNCC5)sc4n3)cc(C)c2n1 [Example 2, 7-(2,8-dimethylimidazo[1,2-b]pyridazin-6-yl)-2-(1,2,3,6-tetrahydropyridin-4-yl)thiazolo[3,2-a]pyrimidin-5-one]",0.054
7,"Cc1cn2nc(-c3cc(=O)n4cc(N5CCNC(C)(C)C5)sc4n3)cc(C)c2n1 [Example 3, 7-(2,8-dimethylimidazo[1,2-b]pyridazin-6-yl)-2-(3,3-dimethylpiperazin-1-yl)thiazolo[3,2-a]pyrimidin-5-one]",0.625
8,"Cc1cn2nc(-c3cc(=O)n4cc(N5CCNC6(CC6)C5)sc4n3)cc(C)c2n1 [Example 4, 2-(4,7-diazaspiro[2.5]octan-7-yl)-7-(2,8-dimethylimidazo[1,2-b]pyridazin-6-yl)thiazolo[3,2-a]pyrimidin-5-one]",3.53
9,"Cc1nc2c(F)cc(-c3cc(=O)n4cc(N5CCNCC5)sc4n3)cc2o1 [Example 5, 7-(4-fluoro-2-methyl-1,3-benzoxazol-6-yl)-2-piperazin-1-yl-thiazolo[3,2-a]pyrimidin-5-one]",0.499
10,"Cc1cn2nc(-c3cc(=O)n4cc(N5CCN[C@@H](C)C5)sc4n3)cc(C)c2n1 [Example 6, 7-(2,8-dimethylimidazo[1,2-b]pyridazin-6-yl)-2-[(3S)-3-methylpiperazin-1-yl]thiazolo[3,2-a]pyrimidin-5-one]",0.268
11,"Cc1cn2nc(-c3cc(=O)n4cc(N5CCN[C@H](C)C5)sc4n3)cc(C)c2n1 [Example 7, 7-(2,8-dimethylimidazo[1,2-b]pyridazin-6-yl)-2-[(3R)-3-methylpiperazin-1-yl]thiazolo[3,2-a]pyrimidin-5-one]",0.052
12,"Cc1cn2nc(-c3cc(=O)n4cc(N5CC(C)NC(C)C5)sc4n3)cc(C)c2n1 (stereo not drawn) [Example 8, 7-(2,8-dimethylimidazo[1,2-b]pyridazin-6-yl)-2-(3,5-dimethylpiperazin-1-yl)thiazolo[3,2-a]pyrimidin-5-one]",0.386
13,"Cc1cn2nc(-c3cc(=O)n4cc(N5CCN6CCC[C@H]6C5)sc4n3)cc(C)c2n1 [Example 9, 7-(2,8-dimethylimidazo[1,2-b]pyridazin-6-yl)-2-[(8aS)-3,4,6,7,8,8a-hexahydro-1H-pyrrolo[1,2-a]pyrazin-2-yl]thiazolo[3,2-a]pyrimidin-5-one]",0.796
14,"Cc1cn2nc(-c3cc(=O)n4cc(N5CCNCC5)sc4n3)ccc2n1 [Example 10, 7-(2-methylimidazo[1,2-b]pyridazin-6-yl)-2-piperazin-1-yl-thiazolo[3,2-a]pyrimidin-5-one]",0.283
15,"Cc1cn2nc(-c3cc(=O)n4cc(N5CCNCC5)sc4n3)cc(C(F)(F)F)c2n1 [Example 11, 7-[2-methyl-8-(trifluoromethyl)imidazo[1,2-b]pyridazin-6-yl]-2-piperazin-1-yl-thiazolo[3,2-a]pyrimidin-5-one]",0.019
16,"CCc1cc(-c2cc(=O)n3cc(N4CCNCC4)sc3n2)nn2cc(C)nc12 [Example 12, 7-(8-ethyl-2-methyl-imidazo[1,2-b]pyridazin-6-yl)-2-piperazin-1-yl-thiazolo[3,2-a]pyrimidin-5-one]",0.104
17,"COc1cc(-c2cc(=O)n3cc(N4CCNCC4)sc3n2)nn2cc(C)nc12 [Example 13, 7-(8-methoxy-2-methyl-imidazo[1,2-b]pyridazin-6-yl)-2-piperazin-1-yl-thiazolo[3,2-a]pyrimidin-5-one]",0.118
18,"Cc1cn2nc(-c3cc(=O)n4cc(N5C6CCC5CNC6)sc4n3)cc(C)c2n1 [Example 14, 2-(3,8-diazabicyclo[3.2.1]octan-8-yl)-7-(2,8-dimethylimidazo[1,2-b]pyridazin-6-yl)thiazolo[3,2-a]pyrimidin-5-one]",0.931
19,"Cc1cn2nc(-c3cc(=O)n4cc(N5CCN6CCC[C@@H]6C5)sc4n3)cc(C)c2n1 [Example 15, 7-(2,8-dimethylimidazo[1,2-b]pyridazin-6-yl)-2-[(8aR)-3,4,6,7,8,8a-hexahydro-1H-pyrrolo[1,2-a]pyrazin-2-yl]thiazolo[3,2-a]pyrimidin-5-one]",0.123
20,"Cc1cn2nc(-c3cc(=O)n4cc(N5C[C@@H]6C[C@H]5CN6)sc4n3)cc(C)c2n1 [Example 16, 7-(2,8-dimethylimidazo[1,2-b]pyridazin-6-yl)-2-[(1S,4S)-2,5-diazabicyclo[2.2.1]heptan-2-yl]thiazolo[3,2-a]pyrimidin-5-one]",9.54
21,"Cc1cn2nc(-c3cc(=O)n4cc(N5CC6CNCC6C5)sc4n3)cc(C)c2n1 (stereo not drawn) [Example 17, 2-(2,3,3a,4,6,6a-hexahydro-1H-pyrrolo[3,4-c]pyrrol-5-yl)-7-(2,8-dimethylimidazo[1,2-b]pyridazin-6-yl)thiazolo[3,2-a]pyrimidin-5-one]",0.421
22,"Cc1cn2nc(-c3cc(=O)n4cc(N5CCNCC5)sc4n3)cc(C3CC3)c2n1 [Example 18, 7-(8-cyclopropyl-2-methyl-imidazo[1,2-b]pyridazin-6-yl)-2-piperazin-1-yl-thiazolo[3,2-a]pyrimidin-5-one]",0.469
23,"C=C(C)c1cc(-c2cc(=O)n3cc(N4CCNCC4)sc3n2)nn2cc(C)nc12 [Example 19, 7-(8-isopropenyl-2-methyl-imidazo[1,2-b]pyridazin-6-yl)-2-piperazin-1-yl-thiazolo[3,2-a]pyrimidin-5-one]",3
24,"Cc1nc2c(C)cc(-c3cc(=O)n4cc(N5CCNCC5)sc4n3)nc2o1 [Example 20, 7-(2,7-dimethyloxazolo[5,4-b]pyridin-5-yl)-2-piperazin-1-yl-thiazolo[3,2-a]pyrimidin-5-one]",0.136
25,"Cc1cn2nc(-c3cc(=O)n4cc(N5CC[C@H](N6CCCC6)C5)sc4n3)cc(C)c2n1 [Example 21, 7-(2,8-dimethylimidazo[1,2-b]pyridazin-6-yl)-2-[(3S)-3-pyrrolidin-1-ylpyrrolidin-1-yl]thiazolo[3,2-a]pyrimidin-5-one]",4.2
26,"Cc1cn2nc(-c3cc(=O)n4cc(N5CCC6(CCNCC6)C5)sc4n3)cc(C)c2n1 [Example 22, 2-(2,8-diazaspiro[4.5]decan-2-yl)-7-(2,8-dimethylimidazo[1,2-b]pyridazin-6-yl)thiazolo[3,2-a]pyrimidin-5-one]",1.32
27,"Cc1cn2nc(-c3cc(=O)n4cc(N5CCNCC5)sc4n3)cc(C(C)C)c2n1 [Example 23, 7-(8-isopropyl-2-methyl-imidazo[1,2-b]pyridazin-6-yl)-2-piperazin-1-yl-thiazolo[3,2-a]pyrimidin-5-one]",0.671
28,"Cc1cn2nc(-c3cc(=O)n4cc(C5CCNCC5)sc4n3)cc(C)c2n1 [Example 24, 7-(2,8-dimethylimidazo[1,2-b]pyridazin-6-yl)-2-(4-piperidyl)thiazolo[3,2-a]pyrimidin-5-one]",0.028
29,"Cc1cn2nc(-c3cc(=O)n4cc(N5CCN6CCC[C@@H]6C5)sc4n3)cc(C(F)(F)F)c2n1 [Example 25, 7-[2-methyl-8-(trifluoromethyl)imidazo[1,2-b]pyridazin-6-yl]-2-[(8aR)-3,4,6,7,8,8a-hexahydro-1H-pyrrolo[1,2-a]pyrazin-2-yl]thiazolo[3,2-a]pyrimidin-5-one]",0.454
30,"Cc1cn2nc(-c3cc(=O)n4cc(C5(F)CCNCC5)sc4n3)cc(C)c2n1 [Example 26, 7-(2,8-dimethylimidazo[1,2-b]pyridazin-6-yl)-2-(4-fluoro-4-piperidyl)thiazolo[3,2-a]pyrimidin-5-one]",0.128
